Laboratory results from ChEMBL document CHEMBL5727708, “Spiro-condensed pyrrolidine derivatives as deubiquitylating enzymes (DUB) inhibitors” (2020).

Target: T1, OTU domain-containing protein 7B (Homo sapiens, UniProt Q6GQQ9)
T1 sequence (Q6GQQ9 whole entry): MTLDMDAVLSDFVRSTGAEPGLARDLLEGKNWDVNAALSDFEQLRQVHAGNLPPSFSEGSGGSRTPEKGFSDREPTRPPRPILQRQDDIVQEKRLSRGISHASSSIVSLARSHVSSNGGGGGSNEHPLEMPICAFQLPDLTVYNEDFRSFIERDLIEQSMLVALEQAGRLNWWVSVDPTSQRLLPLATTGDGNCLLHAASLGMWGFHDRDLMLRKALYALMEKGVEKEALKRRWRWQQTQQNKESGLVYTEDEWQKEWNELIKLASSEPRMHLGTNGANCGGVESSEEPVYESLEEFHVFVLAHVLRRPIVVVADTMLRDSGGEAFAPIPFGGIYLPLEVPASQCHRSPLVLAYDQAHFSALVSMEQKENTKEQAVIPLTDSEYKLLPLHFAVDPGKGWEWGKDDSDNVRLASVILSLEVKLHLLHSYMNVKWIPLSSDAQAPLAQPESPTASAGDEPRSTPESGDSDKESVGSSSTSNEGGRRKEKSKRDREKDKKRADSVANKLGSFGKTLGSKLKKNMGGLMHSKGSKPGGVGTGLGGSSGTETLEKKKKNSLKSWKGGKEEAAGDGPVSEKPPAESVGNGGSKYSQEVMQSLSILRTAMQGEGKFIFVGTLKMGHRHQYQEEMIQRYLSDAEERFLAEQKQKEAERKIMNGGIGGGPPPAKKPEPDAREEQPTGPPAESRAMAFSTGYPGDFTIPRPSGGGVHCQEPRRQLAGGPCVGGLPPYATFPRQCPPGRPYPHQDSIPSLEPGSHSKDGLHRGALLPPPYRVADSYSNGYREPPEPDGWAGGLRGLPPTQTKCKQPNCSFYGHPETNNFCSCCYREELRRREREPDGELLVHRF
Assay: Biochemical Assay: Dilution plates were prepared at 21 times the final concentration (2100 μM for a final concentration of 100 μM) in 50% DMSO in a 96-well polypropylene V-bottom plate (Greiner #651201). A typical 8-point dilution series to be 100, 30, 10, 3, 1, 0.3, 0.1, 0.03 μM final. Reactions were performed in duplicate in black 384 well plates (small volume, Greiner 784076) in a final reaction volume of 21 μl. Either 1 μl of 50% DMSO or diluted compound was added to the plate. Cezanne 1 was diluted in reaction buffer (40 mM Tris, pH 7.5, 0.005% Tween 20, 0.5 mg/ml BSA, 5 mM-beta-mercaptoethanol) to the equivalent of 0.005 μl/well and 10 μl of diluted Cezanne 1 was added to the compound. Enzyme and compound were incubated for 30 min at room temp. Reactions were initiated by the addition of 50 nM of TAMRA labelled peptide linked to ubiquitin via an iso-peptide bond as fluorescence polarisation substrate. Reactions were read immediately after addition of substrate and following a 2 hr incubation at room temperature. Readings were performed on a Pherastar Plus. λ Excitation 540 nm; λ Emission 590 nm.

Cc1ccc2[nH]ncc2c1-c1cnc2c(c1)NC(=O)C1(CCN(C#N)C1)N2 (stereo unspecified)
IC50: < 100 nM
